Each block holds one compound with its values, some of them ahead of it.
Legend:
Format in all cases: cell-based
T-47D cells = test: Inhibition of cell proliferation in T-47D cells (CCK-8, 6 days); conditions: 6 days of treatment, Table 3
Outline: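 T-47D cells at 3,000 cells/well in RPMI 1640 with 10% FBS were exposed to a concentration series of PROTAC compounds for 6 days at 37 °C, 5% CO2. Viability was read by CCK-8, and IC50 values were derived for proliferation inhibition.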

MCF-7 cells = test: Inhibition of cell proliferation of MCF-7 cells (CCK-8, 9 days); conditions: treated for 9 days, CCK-8 kit (Table 6)
Outline: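 MCF-7 cells seeded at 800 cells/well in DMEM with 10% FBS, exposed to a range of compound concentrations for 9 days at 37°C, 5% CO2. Viability read by CCK-8; IC50 derived for proliferation inhibition.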

ERα [1] = target: T1, ERα (Homo sapiens, UniProt P03372); test: Degradation of ERα in MCF-7 cells (immunoblotting, 4 h)
T1 sequence (P03372 1-595): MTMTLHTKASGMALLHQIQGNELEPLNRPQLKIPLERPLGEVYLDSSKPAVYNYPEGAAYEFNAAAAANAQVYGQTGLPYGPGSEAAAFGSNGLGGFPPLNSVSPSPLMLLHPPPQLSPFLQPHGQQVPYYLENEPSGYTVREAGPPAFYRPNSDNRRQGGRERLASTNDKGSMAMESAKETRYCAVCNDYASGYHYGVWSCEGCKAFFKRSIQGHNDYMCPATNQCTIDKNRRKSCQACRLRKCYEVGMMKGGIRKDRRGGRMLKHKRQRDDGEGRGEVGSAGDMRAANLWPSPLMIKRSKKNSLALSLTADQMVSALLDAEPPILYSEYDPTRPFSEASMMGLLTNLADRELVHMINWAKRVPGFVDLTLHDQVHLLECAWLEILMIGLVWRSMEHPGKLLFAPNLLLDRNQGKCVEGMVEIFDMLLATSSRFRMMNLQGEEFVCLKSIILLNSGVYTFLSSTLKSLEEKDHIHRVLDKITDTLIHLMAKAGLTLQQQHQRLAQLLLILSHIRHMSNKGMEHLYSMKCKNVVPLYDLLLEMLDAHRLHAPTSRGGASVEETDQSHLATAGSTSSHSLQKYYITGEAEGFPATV
Outline: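 MCF-7 cells treated 4 h at 37°C with compounds at 0.15-1000nM final. ERα in lysates measured by immunoblot, with band grayscale normalized to an internal reference protein. Degradation rate calculated against DMSO-treated control.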

ERα [2] = target: T1, ERα; test: Degradation of ERα in T-47D cells (immunoblotting, 4 h); parameters: host or cells: T-47D
Outline: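 T-47D cells were treated with compound (final 0.15-1000 nM, DMSO) for 4 h at 37°C, 5% CO2. Cells were lysed in RIPA buffer with protease inhibitor, and ERα protein in the cleared lysate was measured by immunoblotting.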

SMILES: O=C1CCC(N2Cc3cc4c(cc3C2=O)OCC2(CCN(CC3CCC5(CC3)CCN(c3ccc([C@@H]6c7ccc(O)cc7CC[C@@H]6c6ccccc6)cc3)CC5)CC2)O4)C(=O)N1 (stereo partly drawn) [A39]
IC50 (T-47D cells): 41 nM
IC50 (MCF-7 cells): 30 nM
Degradation rate (%) of ERα in MCF-7 cells (ERα [1]; 1nM compound): -16%
Degradation rate (%) of ERα in MCF-7 cells (ERα [1]; 10nM compound): -27%
Degradation rate (%) of ERα in T-47D cells (ERα [2]; 1nM compound): 11%
Degradation rate (%) of ERα in T-47D cells (ERα [2]; 10nM compound): 6%

SMILES: O=C1CCC(N2Cc3c(ccc4c3OCC43CCN(C4CCN(C5CC6(CCN(c7ccc([C@@H]8c9ccc(O)cc9CC[C@@H]8c8ccccc8)cc7)CC6)C5)[C@@H](C(=O)N5CCC(F)(F)CC5)C4)CC3)C2=O)C(=O)N1 (stereo partly drawn) [A99]
IC50 (T-47D cells): 2.07 nM
IC50 (MCF-7 cells): 4.19 nM
Degradation rate (%) of ERα in MCF-7 cells (ERα [1]; 1nM compound): 35%
Degradation rate (%) of ERα in MCF-7 cells (ERα [1]; 10nM compound): 77%
Degradation rate (%) of ERα in T-47D cells (ERα [2]; 1nM compound): 51%
Degradation rate (%) of ERα in T-47D cells (ERα [2]; 10nM compound): 82%

SMILES: C[C@@H]1Cc2c(ccc3[nH]ncc23)[C@@H](c2c(F)cc(N3CCC4(CCN(C(=O)CN5CCC6(CC5)COc5c6ccc6c5CN(C5CCC(=O)NC5=O)C6=O)C4)CC3)cc2F)N1CC(F)F (stereo partly drawn) [C14]
IC50 (T-47D cells): 0.96 nM
IC50 (MCF-7 cells): 15 nM
Degradation rate (%) of ERα in MCF-7 cells (ERα [1]; 1nM compound): 41%
Degradation rate (%) of ERα in MCF-7 cells (ERα [1]; 10nM compound): 55%
Degradation rate (%) of ERα in T-47D cells (ERα [2]; 1nM compound): 50%
Degradation rate (%) of ERα in T-47D cells (ERα [2]; 10nM compound): 66%

SMILES: C[C@@H]1Cc2c(ccc3[nH]ncc23)[C@@H](c2c(F)cc(N3CCC4(CCN(CC(=O)N5CCC6(CC5)COc5c6ccc6c5CN(C5CCC(=O)NC5=O)C6=O)C4)CC3)cc2F)N1CC(F)F (stereo partly drawn) [C11]
IC50 (T-47D cells): 0.66 nM
IC50 (MCF-7 cells): 5970 nM
Degradation rate (%) of ERα in MCF-7 cells (ERα [1]; 1nM compound): 60%
Degradation rate (%) of ERα in MCF-7 cells (ERα [1]; 10nM compound): 69%
Degradation rate (%) of ERα in T-47D cells (ERα [2]; 1nM compound): 56%
Degradation rate (%) of ERα in T-47D cells (ERα [2]; 10nM compound): 68%

SMILES: O=C1CCC(N2Cc3ccc4c(c3C2=O)OCC42CCN(C(=O)CN3CCC4(CCN(c5ccc([C@@H]6c7ccc(O)cc7CC[C@@H]6c6ccccc6)cc5)CC4)C3)CC2)C(=O)N1 (stereo partly drawn) [A92]
IC50 (T-47D cells): 1.34 nM
IC50 (MCF-7 cells): 11.6 nM
Degradation rate (%) of ERα in MCF-7 cells (ERα [1]; 1nM compound): 36%
Degradation rate (%) of ERα in MCF-7 cells (ERα [1]; 10nM compound): 66%
Degradation rate (%) of ERα in T-47D cells (ERα [2]; 1nM compound): 48%
Degradation rate (%) of ERα in T-47D cells (ERα [2]; 10nM compound): 66%

SMILES: O=C1CCC(N2Cc3cc4c(cc3C2=O)OC2(CC4)CCN(CC3CCC4(CC3)CCN(c3ccc([C@@H]5c6ccc(O)cc6CC[C@@H]5c5ccccc5)cc3)CC4)CC2)C(=O)N1 (stereo partly drawn) [A40]
IC50 (T-47D cells): 13 nM
IC50 (MCF-7 cells): 76 nM
Degradation rate (%) of ERα in MCF-7 cells (ERα [1]; 1nM compound): 15%
Degradation rate (%) of ERα in MCF-7 cells (ERα [1]; 10nM compound): 35%
Degradation rate (%) of ERα in T-47D cells (ERα [2]; 1nM compound): 6%
Degradation rate (%) of ERα in T-47D cells (ERα [2]; 10nM compound): 25%

SMILES: CC1(CN2CCC3(CC2)COc2c3ccc3c2CN(C2CCC(=O)NC2=O)C3=O)CCN(CC2CCN(c3ccc([C@@H]4c5ccc(O)cc5CC[C@@H]4c4ccccc4)cc3)CC2)CC1 (stereo partly drawn) [B37]
IC50 (T-47D cells): 8.54 nM
IC50 (MCF-7 cells): 2800 nM
Degradation rate (%) of ERα in MCF-7 cells (ERα [1]; 1nM compound): 11%
Degradation rate (%) of ERα in MCF-7 cells (ERα [1]; 10nM compound): 41%
Degradation rate (%) of ERα in T-47D cells (ERα [2]; 1nM compound): 12%
Degradation rate (%) of ERα in T-47D cells (ERα [2]; 10nM compound): 36%

SMILES: CN(CC(=O)N1CCC2(CC1)COc1c2ccc2c1C(=O)N(C1CCC(=O)NC1=O)C2=O)C1CCC2(CC1)CN(c1ccc([C@@H]3c4ccc(O)cc4CC[C@@H]3c3ccccc3)cc1)C2 (stereo partly drawn) [C19]
IC50 (T-47D cells): 14.7 nM
IC50 (MCF-7 cells): 23100 nM
Degradation rate (%) of ERα in MCF-7 cells (ERα [1]; 1nM compound): 15%
Degradation rate (%) of ERα in MCF-7 cells (ERα [1]; 10nM compound): 45%
Degradation rate (%) of ERα in T-47D cells (ERα [2]; 1nM compound): 32%
Degradation rate (%) of ERα in T-47D cells (ERα [2]; 10nM compound): 65%

SMILES: O=C1CCC(N2Cc3ccc4c(c3C2=O)OCC42CCN(C3CCN(C(=O)C4(F)CCN(c5ccc([C@@H]6c7ccc(O)cc7CC[C@@H]6c6ccccc6)cc5)CC4)CC3F)CC2)C(=O)N1 (stereo partly drawn) [A93]
IC50 (T-47D cells): 1.85 nM
IC50 (MCF-7 cells): 10.5 nM
Degradation rate (%) of ERα in MCF-7 cells (ERα [1]; 1nM compound): 31%
Degradation rate (%) of ERα in MCF-7 cells (ERα [1]; 10nM compound): 69%
Degradation rate (%) of ERα in T-47D cells (ERα [2]; 1nM compound): 26%
Degradation rate (%) of ERα in T-47D cells (ERα [2]; 10nM compound): 71%

Next, values leading:

IC50 (T-47D cells): 3.59 nM
IC50 (MCF-7 cells): 9560 nM
Degradation rate (%) of ERα in MCF-7 cells (ERα [1]; 1nM compound): 32%
Degradation rate (%) of ERα in MCF-7 cells (ERα [1]; 10nM compound): 71%
Degradation rate (%) of ERα in T-47D cells (ERα [2]; 1nM compound): 11%
Degradation rate (%) of ERα in T-47D cells (ERα [2]; 10nM compound): 63%
SMILES: CN(C(=O)CN1CCC2(CC1)COc1c2ccc2c1CN(C1CCC(=O)NC1=O)C2=O)C1CCC2(CC1)CCN(c1ccc([C@@H]3c4ccc(O)cc4CC[C@@H]3c3ccccc3)cc1)CC2 (stereo partly drawn) [H50]

IC50 (T-47D cells): 200 nM
IC50 (MCF-7 cells): 2410 nM
Degradation rate (%) of ERα in MCF-7 cells (ERα [1]; 1nM compound): -20%
Degradation rate (%) of ERα in MCF-7 cells (ERα [1]; 10nM compound): -37%
Degradation rate (%) of ERα in T-47D cells (ERα [2]; 1nM compound): -43%
Degradation rate (%) of ERα in T-47D cells (ERα [2]; 10nM compound): -56%
SMILES: O=C1CCC(N2Cc3cc4c(cc3C2=O)OC2(CC4)CN(CC3CCN(c4ccc([C@@H]5c6ccc(O)cc6CC[C@@H]5c5ccccc5)cc4)CC3)C2)C(=O)N1 (stereo partly drawn) [H3]

IC50 (T-47D cells): 1.88 nM
IC50 (MCF-7 cells): 5.05 nM
Degradation rate (%) of ERα in MCF-7 cells (ERα [1]; 1nM compound): 63%
Degradation rate (%) of ERα in MCF-7 cells (ERα [1]; 10nM compound): 80%
Degradation rate (%) of ERα in T-47D cells (ERα [2]; 1nM compound): 59%
Degradation rate (%) of ERα in T-47D cells (ERα [2]; 10nM compound): 83%
SMILES: O=C1CCC(N2Cc3c(ccc4c3OCC43CCN(C4CCN(C5CC6(CCN(c7ccc([C@@H]8c9ccc(O)cc9CC[C@@H]8c8ccccc8)cc7)CC6)C5)[C@H](C(=O)NC5CC5)C4)CC3)C2=O)C(=O)N1 (stereo partly drawn) [H41]

IC50 (T-47D cells): 1.04 nM
IC50 (MCF-7 cells): 5.67 nM
Degradation rate (%) of ERα in MCF-7 cells (ERα [1]; 1nM compound): 57%
Degradation rate (%) of ERα in MCF-7 cells (ERα [1]; 10nM compound): 78%
Degradation rate (%) of ERα in T-47D cells (ERα [2]; 1nM compound): 61%
Degradation rate (%) of ERα in T-47D cells (ERα [2]; 10nM compound): 86%
SMILES: CC1CN(C(=O)C2CCN(c3ccc(C4c5ccc(O)cc5CCC4c4ccccc4)cc3)CC2)CCC1N1CCC2(CC1)COc1c2ccc2c1CN(C1CCC(=O)NC1=O)C2=O (stereo not drawn) [K23]

IC50 (T-47D cells): 1.02 nM
IC50 (MCF-7 cells): 62.7 nM
Degradation rate (%) of ERα in MCF-7 cells (ERα [1]; 1nM compound): 47%
Degradation rate (%) of ERα in MCF-7 cells (ERα [1]; 10nM compound): 54%
Degradation rate (%) of ERα in T-47D cells (ERα [2]; 1nM compound): 61%
Degradation rate (%) of ERα in T-47D cells (ERα [2]; 10nM compound): 68%
SMILES: O=C1CCC(N2Cc3c(ccc4c3OCC43CCN(C(=O)C4CCC(N5CCN(c6ccc([C@@H]7c8ccc(O)cc8CC[C@@H]7c7ccccc7)cc6)CC5)CC4)CC3)C2=O)C(=O)N1 (stereo partly drawn) [H17]

IC50 (T-47D cells): 4.21 nM
IC50 (MCF-7 cells): 25400 nM
Degradation rate (%) of ERα in MCF-7 cells (ERα [1]; 1nM compound): 8%
Degradation rate (%) of ERα in MCF-7 cells (ERα [1]; 10nM compound): 46%
Degradation rate (%) of ERα in T-47D cells (ERα [2]; 1nM compound): 33%
Degradation rate (%) of ERα in T-47D cells (ERα [2]; 10nM compound): 71%
SMILES: O=C1CCC(N2Cc3c(ccc4c3OCC43CCN(C4CC5(C4)CC4(CCN(c6ccc([C@@H]7c8ccc(O)cc8CC[C@@H]7c7ccccc7)cc6)CC4)C5)CC3)C2=O)C(=O)N1 (stereo partly drawn) [G6]

Reference: patent EP4656642A1, “ESTROGEN RECEPTOR PROTEOLYSIS TARGETING CHIMERA COMPOUND AND USE THEREOF” (GAN & LEE PHARM CO., LTD, priority 2023, dated 2024)
